The NIST ThermoML archive (doi:10.1016/j.tca.2019.01.021)
± gives the expanded uncertainty stated by the source.

Test: molar enthalpy of vaporization or sublimation
Details: 298.15 K; Crystal; Static calorimetry

SMILES: OCCc1c[nH]c2ccccc12 [2-(1H-indol-3-yl)ethanol]
- molar enthalpy: 28.6 ± 0.598 kcal/mol
